Drawing on PubChem BioAssay (NCI), this text covers TGI for 4 molecules.

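Briefly, cells in 96-well plates were exposed to five compound concentrations for 48 h, and endpoints were estimated by linear interpolation. TGI: concentration producing complete growth inhibition.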

Common to all, as to assay: NCI tumour cell line growth inhibition, 48 h
For assay [1], the system named is DLD-1 colon.
Assay [2] relates to DMS 273 small cell lung.
The subject of assay [3] is KM20L2 colon.
The test system of assay [4] is M19-MEL melanoma.
In assay [5] the test system is XF 498 CNS.
In assay [6] the test system is HOP-18 NSCLC.
Assay [7] deals with P388 leukemia.
The test system of assay [8] is SN12K1 renal.

Regarding `CC(OC(C)(C)C)[C@H](NC(=O)OCC(Cl)(Cl)Cl)C(=O)O` (some centres not stated), the TGI in assay [1], in assay [2], in assay [3], in assay [4] and in assay [5] was greater than 100 µM each time.

For `CN(C)CCC(=O)c1ccccc1`, the TGI in assay [1] was 41 µM; in assay [2] it was greater than 100 µM; in assay [6] it was greater than 68.9 µM; in assay [3], greater than 59.1 µM; in assay [4], 52.7 µM; in assay [5], 38.5 µM.

Turning to `CCC(/C=C/C1OC(=O)C=CC1C)=C\C(C)C/C=C/C(C)=C/C(C)C(=O)C(C)C(O)C(C)C/C(C)=C/C(=O)O` (configuration not stated), the TGI was 35.8 µM in assay [1]; 27.1 µM in assay [2]; 16.3 µM in assay [6]; 8.33 µM in assay [3]; 6.49 µM in assay [4]; 6.6 µM in assay [7]. In assay [8], this molecule came in with a TGI of 4.74 µM.

As to `Cn1c(=O)n(C2(C)C[Se]C2)c2ccccc21`, the TGI in assay [1], in assay [2], in assay [3] and in assay [4] was greater than 100 µM in each case.
